Data from patent US8541189B2, “Method for measuring the plasmine activity of microparticles present in a sample of blood or a blood component” (Institut National de la Sante et de la Recherche Medicale …, priority 2007, dated 2013).

Target: plasminogen (Homo sapiens, UniProt P00747)
Test: Plasmin-generation test, EMPs in suspension
Format: biochemical
Conditions: 5 · 10^4 EMP/50 μL + EACA; 1 μM plasminogen; 0.75 mM CBS0065
Protocol: In the round-bottomed wells of 96-well plates made of PVC, different EMP concentrations in suspension in PBS, to which 0.8% bovine serum albumin (PBSA) had been added, were incubated with 50 μl of a mixture of 1 μM plasminogen and (methyl-malonyl)-hydroxypropylarginine-p-nitroanilide (CBS0065, Stag°, Asniéres, France), chromogenic substrate selective for plasmin, at 0.75 mM.
An identical volume of supernatant from the last washing of the EMPs was used as a control.
The microplate was placed in the microplate readers and the kinetics of the appearance of the plasmin were monitored for 9 hours using a spectrophotometer suitable for reading multiwell plates (MX5000. Dynex) at 37° C. by measurement of the modifications of the absorbance at 405 nm produced by the release of the p-nitroaniline as a function of time.

plasminogen, sequence (P00747 20-810 limits assumed, species assumed): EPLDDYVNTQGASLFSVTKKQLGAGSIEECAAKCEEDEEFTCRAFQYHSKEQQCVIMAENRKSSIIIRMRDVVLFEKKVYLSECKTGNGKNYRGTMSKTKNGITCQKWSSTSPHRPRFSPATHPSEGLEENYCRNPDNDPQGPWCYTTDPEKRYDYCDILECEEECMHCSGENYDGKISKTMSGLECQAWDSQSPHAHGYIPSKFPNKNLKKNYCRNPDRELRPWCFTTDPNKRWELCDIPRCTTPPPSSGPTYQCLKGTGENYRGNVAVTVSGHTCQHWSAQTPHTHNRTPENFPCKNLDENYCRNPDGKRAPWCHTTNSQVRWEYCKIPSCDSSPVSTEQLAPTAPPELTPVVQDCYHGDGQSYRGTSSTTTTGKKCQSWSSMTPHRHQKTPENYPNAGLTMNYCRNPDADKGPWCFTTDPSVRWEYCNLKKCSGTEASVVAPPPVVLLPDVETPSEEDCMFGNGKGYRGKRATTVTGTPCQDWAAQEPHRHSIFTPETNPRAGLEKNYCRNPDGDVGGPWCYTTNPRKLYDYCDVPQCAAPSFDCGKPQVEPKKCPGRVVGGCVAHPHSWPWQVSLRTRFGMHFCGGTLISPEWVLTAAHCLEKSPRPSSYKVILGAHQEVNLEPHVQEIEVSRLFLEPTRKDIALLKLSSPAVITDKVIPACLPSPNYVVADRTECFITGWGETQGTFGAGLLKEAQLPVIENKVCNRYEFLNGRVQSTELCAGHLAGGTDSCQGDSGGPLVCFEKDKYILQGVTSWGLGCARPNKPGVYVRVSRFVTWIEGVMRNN

## NCCCCCC(=O)O [EACA, ε-aminocaproic acid]
  A405 nm/min: 0.6 A405 nm/min
